Experimental data published in PubChem BioAssay AID256 (DTP/NCI, 2004).
“And” between values parts separate entries of the source, which are not always exact repeats. Identical values can stand only once. Inconclusive results and toxic doses are left out.

Tested on: CD2F1 mice, L1210 leukemia ip, survival T/C
Assay: NCI In Vivo Anticancer Drug Screen. Data for tumor model L1210 Leukemia (intraperitoneal) in CD2F1 (CDF1) mice
Settings: higher = longer survival
How it was run: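 In this screen, transplantable tumors were grown in mice given either the compound or its vehicle. Results were expressed as the treated measurement relative to the control measurement.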

[1] = endpoint: mean survival time, dose: 100.0 mg/kg/injection, schedule: Q04DX003 (ip), vehicle: saline with Tween-80
[2] = endpoint: mean survival time, dose: 200.0 mg/kg/injection, schedule: Q04DX003 (ip), vehicle: saline with Tween-80
[3] = endpoint: mean survival time, dose: 100.0 mg/kg/injection, schedule: Q01DX009 (ip), vehicle: saline with Tween-80
[4] = endpoint: mean survival time, dose: 200.0 mg/kg/injection, schedule: Q01DX009 (ip), vehicle: saline with Tween-80
[5] = endpoint: mean survival time, dose: 400.0 mg/kg/injection, schedule: Q01DX009 (ip), vehicle: saline with Tween-80
[6] = endpoint: mean survival time, dose: 400.0 mg/kg/injection, schedule: Q04DX003 (ip), vehicle: saline with Tween-80
[7] = endpoint: mean survival time, dose: 100.0 mg/kg/injection, schedule: Q01DX001 (ip), vehicle: saline with Tween-80
[8] = endpoint: mean survival time, dose: 200.0 mg/kg/injection, schedule: Q01DX009 (ip), vehicle: distilled water + Tween-80
[9] = endpoint: median survival time, dose: 25.0 mg/kg/injection, schedule: Q01DX009 (ip), vehicle: distilled water + Tween-80
[10] = endpoint: median survival time, dose: 50.0 mg/kg/injection, schedule: Q01DX009 (ip), vehicle: distilled water + Tween-80

COC(=O)C1(C)CCCC2(C)C1CCC13C2CC1C1(C(C)C)OC31 (centres undefined)
T/C [1]: 89 % of control | T/C [2]: 92 % of control

O=C(O)/C(=C/c1ccc(O)cc1)c1ccccc1
T/C [3]: 88 % of control | T/C [1]: 101 % of control | T/C [4]: 93 % of control | T/C [2]: 91 % of control | T/C [5]: 87 % of control | T/C [6]: 96 % of control

COC(=O)C1(C)CCCC2(C)C3CCC(C)(CCOC(C)=O)CC3C(OC(C)=O)CC12 (centres undefined)
T/C [7]: 90 % of control

CCOP(=O)(OCC)/C(C#N)=C\c1ccc(O)c(OC)c1
T/C [1]: 98 % of control | T/C [2]: 101 % of control | T/C [6]: 96 % of control

O=C1CCC2(CC1C1C=CCC1)OCCO2 (centres undefined)
T/C [3]: 91 % of control | T/C [1]: 100 % of control | T/C [4]: 94 % of control | T/C [2]: 102 % of control | T/C [5]: 100 % of control | T/C [6]: 98 % of control

C[Si](C)(C)C1([Si](C)(C)C)SCCCS1
T/C (endpoint: mean survival time, dose: 50.0 mg/kg/injection, schedule: Q01DX009 (ip), vehicle: other): 105 % of control | T/C (endpoint: mean survival time, dose: 100.0 mg/kg/injection, schedule: Q01DX009 (ip), vehicle: other): 105 % of control | T/C (endpoint: mean survival time, dose: 200.0 mg/kg/injection, schedule: Q01DX009 (ip), vehicle: other): 102 % of control

Cc1cn2c(nc1=O)OC1C(O)C(CCl)OC12 (centres undefined)
T/C (endpoint: median survival time, dose: 12.5 mg/kg/injection, schedule: Q01DX005 (ip), vehicle: saline with Tween-80): 103 % of control | T/C (endpoint: median survival time, dose: 25.0 mg/kg/injection, schedule: Q01DX005 (ip), vehicle: saline with Tween-80): 96 % of control | T/C (endpoint: median survival time, dose: 50.0 mg/kg/injection, schedule: Q01DX005 (ip), vehicle: saline with Tween-80): 103 % of control | T/C (endpoint: median survival time, dose: 100.0 mg/kg/injection, schedule: Q01DX005 (ip), vehicle: saline with Tween-80): 95 % of control | T/C (endpoint: median survival time, dose: 200.0 mg/kg/injection, schedule: Q01DX005 (ip), vehicle: saline with Tween-80): 94 % of control

O=C1c2ccccc2C(=O)N1CN1CCC(CCCC2CCN(CN3C(=O)c4ccccc4C3=O)CC2)CC1
T/C (endpoint: mean survival time, dose: 25.0 mg/kg/injection, schedule: Q04DX003 (ip), vehicle: saline with Tween-80): 95 % of control | T/C (endpoint: mean survival time, dose: 50.0 mg/kg/injection, schedule: Q04DX003 (ip), vehicle: saline with Tween-80): 95 % of control | T/C [1]: 95 % of control

C/C(=C\Br)CO
T/C (endpoint: mean survival time, dose: 50.0 mg/kg/injection, schedule: Q01DX009 (ip), vehicle: acetone): 100 % of control | T/C (endpoint: mean survival time, dose: 100.0 mg/kg/injection, schedule: Q01DX009 (ip), vehicle: acetone): 96 % of control | T/C (endpoint: mean survival time, dose: 200.0 mg/kg/injection, schedule: Q01DX009 (ip), vehicle: acetone): 96 % of control

CO/N=C/[C@@H](CO)O[C@H](/C=N/OC)n1cnc2c(N)ncnc21
T/C (endpoint: median survival time, dose: 12.5 mg/kg/injection, schedule: Q01DX005 (ip), vehicle: distilled water + Tween-80): 97 % of control | T/C (endpoint: median survival time, dose: 25.0 mg/kg/injection, schedule: Q01DX005 (ip), vehicle: distilled water + Tween-80): 100 % of control | T/C (endpoint: median survival time, dose: 50.0 mg/kg/injection, schedule: Q01DX005 (ip), vehicle: distilled water + Tween-80): 97 % of control | T/C (endpoint: median survival time, dose: 100.0 mg/kg/injection, schedule: Q01DX005 (ip), vehicle: distilled water + Tween-80): 96 % of control | T/C (endpoint: median survival time, dose: 200.0 mg/kg/injection, schedule: Q01DX005 (ip), vehicle: distilled water + Tween-80): 100 % of control

CCOC(=O)Nc1cc(NCCCCc2ccccc2)c2[nH]cnc2n1
T/C (endpoint: mean survival time, dose: 100.0 mg/kg/injection, schedule: Q01DX001 (ip), vehicle: Klucel (hydroxypropylcellulose) (HPC)): 95 % of control | T/C (endpoint: mean survival time, dose: 200.0 mg/kg/injection, schedule: Q01DX001 (ip), vehicle: Klucel (hydroxypropylcellulose) (HPC)): 93 % of control | T/C (endpoint: mean survival time, dose: 400.0 mg/kg/injection, schedule: Q01DX001 (ip), vehicle: Klucel (hydroxypropylcellulose) (HPC)): 102 % of control

Cc1cccc(C)c1NC(=O)c1ccccc1O
T/C [3]: 98 % of control | T/C [1]: 101 % of control | T/C [4]: 97 % of control | T/C [2]: 96 % of control | T/C [5]: 100 % of control | T/C [6]: 102 % of control

COC1OCC(O)C(O)C1O (centres undefined)
T/C (endpoint: mean survival time, dose: 100.0 mg/kg/injection, schedule: Q01DX009 (ip), vehicle: saline): 101 % of control | T/C (endpoint: mean survival time, dose: 200.0 mg/kg/injection, schedule: Q01DX009 (ip), vehicle: saline): 98 % of control | T/C (endpoint: mean survival time, dose: 400.0 mg/kg/injection, schedule: Q01DX009 (ip), vehicle: saline): 98 % of control

Clc1ccc(SC=C(Sc2ccc(Cl)cc2)Sc2ccc(Cl)cc2)cc1
T/C (endpoint: mean survival time, dose: 100.0 mg/kg/injection, schedule: Q04DX002 (ip), vehicle: other): 94 % of control | T/C (endpoint: mean survival time, dose: 200.0 mg/kg/injection, schedule: Q04DX002 (ip), vehicle: other): 94 % of control | T/C (endpoint: mean survival time, dose: 400.0 mg/kg/injection, schedule: Q04DX002 (ip), vehicle: other): 87 % of control

Nc1nc(/C=C(/O)c2ccccc2)c2ncn(C3OC(CO)C(O)C3O)c2n1 (centres undefined)
T/C (endpoint: mean survival time, dose: 12.5 mg/kg/injection, schedule: Q01DX005 (ip), vehicle: distilled water + Tween-80): 103 % of control | T/C (endpoint: mean survival time, dose: 12.5 mg/kg/injection, schedule: Q01DX009 (ip), vehicle: distilled water + Tween-80): 89 % of control | T/C (endpoint: mean survival time, dose: 25.0 mg/kg/injection, schedule: Q01DX005 (ip), vehicle: distilled water + Tween-80): 114 % of control and 115 % of control | T/C (endpoint: mean survival time, dose: 25.0 mg/kg/injection, schedule: Q01DX009 (ip), vehicle: distilled water + Tween-80): 89 % of control | T/C (endpoint: mean survival time, dose: 50.0 mg/kg/injection, schedule: Q01DX005 (ip), vehicle: distilled water + Tween-80): 120 % of control | T/C (endpoint: mean survival time, dose: 50.0 mg/kg/injection, schedule: Q01DX009 (ip), vehicle: distilled water + Tween-80): 92 % of control | T/C (endpoint: mean survival time, dose: 100.0 mg/kg/injection, schedule: Q01DX005 (ip), vehicle: distilled water + Tween-80): 160 % of control | T/C (endpoint: mean survival time, dose: 100.0 mg/kg/injection, schedule: Q01DX009 (ip), vehicle: distilled water + Tween-80): 102 % of control | T/C [8]: 103 % of control | T/C (endpoint: median survival time, dose: 12.5 mg/kg/injection, schedule: Q01DX009 (ip), vehicle: distilled water + Tween-80): 103 % of control | T/C [9]: 107 % of control | T/C [10]: 111 % of control | T/C (endpoint: median survival time, dose: 100.0 mg/kg/injection, schedule: Q01DX009 (ip), vehicle: distilled water + Tween-80): 113 % of control

OC1C2CC3C1C3C2O (centres undefined)
T/C [1]: 94 % of control | T/C [2]: 97 % of control | T/C [6]: 105 % of control

O=C(NO)c1cc(O)c(O)c(O)c1
T/C (endpoint: mean survival time, dose: 100.0 mg/kg/injection, schedule: Q01DX009 (ip), vehicle: water): 117 % of control | T/C [8]: 154 % of control | T/C (endpoint: mean survival time, dose: 200.0 mg/kg/injection, schedule: Q01DX009 (ip), vehicle: water): 156 % of control | T/C (endpoint: mean survival time, dose: 400.0 mg/kg/injection, schedule: Q01DX009 (ip), vehicle: distilled water + Tween-80): 104 % of control | T/C (endpoint: mean survival time, dose: 400.0 mg/kg/injection, schedule: Q01DX009 (ip), vehicle: water): 100 % of control | T/C (endpoint: mean survival time, dose: 800.0 mg/kg/injection, schedule: Q01DX009 (ip), vehicle: distilled water + Tween-80): 116 % of control | T/C [9]: 107 % of control | T/C [10]: 120 % of control | T/C (endpoint: median survival time, dose: 200.0 mg/kg/injection, schedule: Q01DX009 (ip), vehicle: distilled water + Tween-80): 158 % of control and 162 % of control | T/C (endpoint: median survival time, dose: 400.0 mg/kg/injection, schedule: Q01DX009 (ip), vehicle: distilled water + Tween-80): 90 % of control

CC(NC(=O)OCc1ccccc1)C(=O)NCCC(=O)OCc1ccccc1 (centres undefined)
T/C [3]: 93 % of control | T/C [4]: 95 % of control | T/C [5]: 90 % of control

CN(C)N=Nc1c(F)c(F)cc(F)c1F
T/C (endpoint: mean survival time, dose: 25.0 mg/kg/injection, schedule: Q01DX009 (ip), vehicle: saline with Tween-80): 102 % of control | T/C (endpoint: mean survival time, dose: 50.0 mg/kg/injection, schedule: Q01DX009 (ip), vehicle: saline with Tween-80): 107 % of control | T/C [4]: 151 % of control | T/C [5]: 112 % of control

OC1c2ccccc2C2CC12 (centres undefined)
T/C [7]: 105 % of control | T/C (endpoint: mean survival time, dose: 200.0 mg/kg/injection, schedule: Q01DX001 (ip), vehicle: saline with Tween-80): 102 % of control | T/C (endpoint: mean survival time, dose: 400.0 mg/kg/injection, schedule: Q01DX001 (ip), vehicle: saline with Tween-80): 105 % of control

CCCCCCC(C)NCC(O)COc1cccc(C)c1 (centres undefined)
T/C (endpoint: mean survival time, dose: 12.5 mg/kg/injection, schedule: Q04DX002 (ip), vehicle: saline with Tween-80): 101 % of control | T/C (endpoint: mean survival time, dose: 25.0 mg/kg/injection, schedule: Q04DX002 (ip), vehicle: saline with Tween-80): 96 % of control | T/C (endpoint: mean survival time, dose: 50.0 mg/kg/injection, schedule: Q04DX002 (ip), vehicle: saline with Tween-80): 93 % of control

Cc1ccc2nc(-c3ccccc3N)[nH]c2c1
T/C [1]: 87 % of control | T/C [2]: 92 % of control | T/C [6]: 89 % of control
